Results: patent EP1951308B1, “COMBINATION PREPARATIONS CONTAINING PHYSIOLOGICAL CELL MEMBRANE CONSTITUENTS INCLUDING PHOSPHATIDYLSERINE, CHOLINE AND A PYRIMIDINE NUCLEOSIDE/NUCLEOTIDE” (Susilo, Gisela, priority 2005, dated 2007)
Entries after “also recorded” stand apart in the source; their conditions may differ.

Tested on: elektrische Hirnaktivität
Test: EEG recording (CATEEM system, 17 electrodes, 10/20 system) of electrical brain activity after a single oral intake, compared with placebo; studies 1, 3, 4 and 5
Format: in vivo, gesunden Testpersonen
Conditions: for Hirnaktivität / Hirnleistung / Gehirnfunktion (Stimulierung): conclusion in words drawn from the EEG results; for delta Aktivität in Bezug auf die Referenz (Placebo) / Veränderung der delta Aktivität im Vergleich zu Placebo: oral, Augen offen; for Veränderung der delta Aktivität im Vergleich zu Placebo: during 4 Stunden after intake, studies 3-5; for neuro-regenerierende Wirkung: summary of Studienbeispiele 1 - 5, EEG, single oral dose; for delta Power (delta Aktivität): study 1, recording condition not stated, 1-4 h after oral intake

Compound	Hirnaktivität / Hirnleistung / Gehirnfunktion (Stimulierung)	delta Aktivität in Bezug auf die Referenz (Placebo) (1 h after intake) [%]	delta Aktivität in Bezug auf die Referenz (Placebo) (2h after intake) [%]	delta Aktivität in Bezug auf die Referenz (Placebo) (4h after intake) [%]	Veränderung der delta Aktivität im Vergleich zu Placebo (result in words)	neuro-regenerierende Wirkung	Beta-Aktivitäten (beta Power) (result in words, study 1)	alpha Power (alpha Aktivität) (result in words, study 1)	delta Aktivitäten (result in words, study 1, Augen offen)	delta Power (delta Aktivität) (result in words)	delta Power (delta Aktivität) (result in words, listed as INDO I)
C[N+](C)(C)CCOP(=O)([O-])OP(=O)(O)OC[C@H]1O[C@@H](n2ccc(N)nc2=O)[C@H](O)[C@@H]1O [CDP-Cholin, Cytidindiphosphocholin]	nicht bzw. nur leicht jedoch nicht signifikant steigern	98	102	96	geringfügige aber im Vergleich zum Placebo-Arm nicht signifikante Veränderung	-					
Phosphatidylserin	nicht bzw. nur leicht jedoch nicht signifikant steigern; also recorded: nicht beobachtet	96	94	94	keinen signifikanten Veränderungen	-	nur bei einem Messzeitpunkt nämlich 3 Stunden nach Verabreichung des Wirkstoffs eine statistisch signifikante Abnahme	leichter aber nicht signifikanter Zunahme	während der zweiten und dritten Stunde vermindert, aber keine statistische Signifikanz	Abnahme des delta Power	Abnahme der elektrischen delta Aktivität (delta Power), die jedoch nur 4 Stunden nach Applikation statistisch signifikant war
